For one data set, the system named is MCF-7/AZ cells. Briefly: Collagen type I invasion assay. The class given is cell-based, human. The settings on record: 24 hours post-treatment; 1 μM, 100 nM and 10 nM; positive if collagen-invasion or cell-stretching at minimum 2 consecutive concentrations; n = 3.
The next data set in a line: Stability in cell medium. The class given is in vitro ADME. The note with it: cell medium in Krebs-Henseleit buffer, 37°C. Here is the method: (§1) In vitro chemical and metabolic stability was determined in cell medium and human plasma, respectively, using previously described procedures. In brief, 100 μg of peptide was incubated in Krebs-Henseleit buffer pH 7.4 with cell medium/plasma (500 μl) at 37°C while shaking. […] The enzyme reaction was further stopped by heating the solution at 95°C for 5 minutes. Next, the samples were centrifuged to precipitate the denatured proteins and the supernatant analyzed using UPLC-PDA. Appropriate placebo solutions were similarly prepared. Assuming first-order kinetics, the rate constant k was obtained from ln(Pt/Pt0) = -kt, from which the half-life was determined as t1/2 = ln(2)/k.

Data set [1] in a line: Stability in human plasma. The class given is in vitro ADME. The settings on record: human plasma in Krebs-Henseleit buffer. Here is the method:
as §1

The nature of another data set: in vitro. The settings on record: human, Caco-2.
The test system of another data set is Caco-2 monolayer. The data set can be described thus: Caco-2 permeability assay. The settings on record: for intestinal permeability (in words): Caco-2 monolayer, 10 μM in HBSS. (In general: Caco-2 monolayers are a common model of the intestinal barrier.)
Setting [2] is: Krebs-Henseleit buffer pH 7.4 with cell medium, 0, 6 and 24 hours, first-order kinetics, read-out: Cell medium half-life (converted).
Where [3] appears, read: human, pH 7.4, footnote a, human plasma, 37°C, sampled up to 120 minutes, read-out: calculated half-life in plasma.
The mark [4] stands for this setting: human, pH 7.4, human plasma, Krebs-Henseleit buffer pH 7.4, 37°C, 0, 30 and 120 minutes, first-order kinetics, read-out: Plasma half-life (converted).

These results are taken from article PMC4363635 (PLoS ONE, 2015).

Ends that are not written are not given here. Peptide text beside a SMILES is read from it.

Experimental for MCF-7/AZ cells: Morphology changes of MCF-7/AZ cells were investigated using previously described methods [12]. […] Peptide solutions (S1 Table) (> 80% purity; all from GL Biochem, Shanghai, China) were prepared using ultrapure water and DMSO, obtaining final peptide concentrations of 1 μM (maximum 0.05% DMSO), 100 nM and 10 nM after 1:10 dilution using growth medium. […] To quantify these visual results, the number of cells containing invasive extensions were counted and compared to the total number of cells in the field.

Take ARNQT [PhrA]: in the data set with MCF-7/AZ cells, the “tumour cell invasion through a type I collagen extracellular matrix (morphology scoring)” value is “did not induce invasive characteristics”.
For the compound NNWNN [EDF, NNWNN], the half-life – broadly, how long it takes for the measured level to halve – in the data set “Stability in cell medium” (setting [2]) is 16.2 h; in data set [1] (setting [3]), 13.2 h; in data set [1] (setting [4]), above 13 h. Also, in “in vitro”, the Papp – broadly, the rate of passage across a membrane or cell layer, normalised by area and donor concentration – at 120 min, 10 μM is below 0.029 nm/s. Besides, the “intestinal permeability (in words)” value in the data set on Caco-2 monolayer is “impermeable”.
Consider EMRKSNNNFFHFLRRI [CSP], for which the half-life was 45.8 h in “Stability in cell medium” (setting [2]); 8.73 h in data set [1] (human plasma, Krebs-Henseleit buffer pH 7.4, 37°C, 0, 30 and 120 minutes, first-order kinetics, read-out: Plasma half-life (converted)).
As for EKMIG [PhrG, EKMIG], the half-life in “Stability in cell medium” (pH 7.4, Krebs-Henseleit buffer pH 7.4 with cell medium, 0, 6 and 24 hours, first-order kinetics, read-out: Cell medium half-life (converted)) was 160 h; in the data set “Stability in cell medium” (pH 7.4, footnote a, sampled up to 24 hours, read-out: calculated half-life in cell medium), 158 h; in data set [1] (setting [3]), 13.2 h; in data set [1] (setting [4]) it was above 13 h. The Papp A→B (usually how fast a substance crosses the layer from the apical side) at 120 min, 10 μM in “in vitro” was below 0.069 nm/s. For the same compound, the Papp B→A (commonly the apparent permeability from the basolateral to the apical side of a cell layer) at 120 min, 10 μM in “in vitro” came to 0.137 nm/s. In the data set with Caco-2 monolayer, the “intestinal permeability (in words)” value was “does not show any absorption from the intestinal lumen”.
With `NC(=O)C[C@H](NC(=O)[C@H](Cc1c[nH]c2ccccc12)NC(=O)[C@@H](N)CC(N)=O)C(=O)O` [EDF-analogue, NWN] (H-Asn-Trp-Asn-OH; N-terminus and C-terminus assumed), the values for the half-life (in “Stability in cell medium” (setting [2]); in data set [1] (setting [4])) were 42 h and 4.47 h, respectively. The compound also had a Papp A→B at 120 min, 10 μM in “in vitro” of 1.41 nm/s. For the same compound, the efflux ratio – broadly, the permeability from basolateral to apical divided by that in the opposite direction, in the common usage – at 120 min, 10 μM in the data set “in vitro” turned out to be 1.1. In addition, in the data set on Caco-2 monolayer (10 μM peptide plus dipeptide LY (10 μM)), the “efflux ratio change using the PepT1 substrate LY” value is on record as “doubled”. In addition, the “intestinal permeability (in words)” value is on record as “can pass the intestinal barrier” in the data set with Caco-2 monolayer and “low intestinal permeability kinetics” in the data set with Caco-2 monolayer (listed as NWN). Also, the “absorption in humans (in vivo) corresponding to in vitro Papp values” in the data set with Caco-2 monolayer (in vivo-in vitro correlation studies ref 15, 33) is 5–10%.
